From ChEMBL document CHEMBL1201862, “PubChem BioAssay data set” (2004)
Activity calls are given as the source filed them.

Experiments:
cells [1] = format: functional, cell-based
cells [2] = format: functional, cell-based; remark: listed apart in the source
[3] = blockers of HIV-1 envelope-mediated cell-cell fusion – cherry-pick, dose response (AID 652057); format: functional, cell-based
[4] = blockers of HIV-1 ZM109 envelope-driven cell-cell fusion – HeLa effector, CEM target cells, luciferase, cherry-pick, dose response (AID 652058); format: functional, cell-based;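 also: luciferase signal from HIV-1 Env mediated cell-cell fusion of effector and target cells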
[5] = HIV-1 AD8 envelope cell-cell fusion blockers – cherry-pick, dose response (AID 652062); format: functional, cell-based;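 also: luciferase signal from cell-cell fusion driven by HIV-1 clade B AD8 Env; potency is for inhibitors of fusion seen as a drop in luminescence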
[6] = biological target: T1, Polyadenylate-binding protein 1 (Homo sapiens, UniProt P11940); assay: MLLE binding blockers, Cy5 peptide tracer – biochemical, fluorescence polarization, Cy5-PAM2 peptide, secondary, miRNA deadenylation inhibitor project, dose response (AID 602260); format: functional; conditions: read-out: IC50_Mean
[7] = biological target: T1, Polyadenylate-binding protein 1; assay: MLLE domain peptide-binding blockers, IC50 – biochemical, fluorescence polarization, FITC-PAM2 peptide, dose response (AID 602259); format: functional; conditions: read-out: IC50_Mean
Protein skinhead-1 = biological target: T2, Protein skinhead-1 (Caenorhabditis elegans, UniProt P34707); format: functional
T2 sequence (P34707 whole entry): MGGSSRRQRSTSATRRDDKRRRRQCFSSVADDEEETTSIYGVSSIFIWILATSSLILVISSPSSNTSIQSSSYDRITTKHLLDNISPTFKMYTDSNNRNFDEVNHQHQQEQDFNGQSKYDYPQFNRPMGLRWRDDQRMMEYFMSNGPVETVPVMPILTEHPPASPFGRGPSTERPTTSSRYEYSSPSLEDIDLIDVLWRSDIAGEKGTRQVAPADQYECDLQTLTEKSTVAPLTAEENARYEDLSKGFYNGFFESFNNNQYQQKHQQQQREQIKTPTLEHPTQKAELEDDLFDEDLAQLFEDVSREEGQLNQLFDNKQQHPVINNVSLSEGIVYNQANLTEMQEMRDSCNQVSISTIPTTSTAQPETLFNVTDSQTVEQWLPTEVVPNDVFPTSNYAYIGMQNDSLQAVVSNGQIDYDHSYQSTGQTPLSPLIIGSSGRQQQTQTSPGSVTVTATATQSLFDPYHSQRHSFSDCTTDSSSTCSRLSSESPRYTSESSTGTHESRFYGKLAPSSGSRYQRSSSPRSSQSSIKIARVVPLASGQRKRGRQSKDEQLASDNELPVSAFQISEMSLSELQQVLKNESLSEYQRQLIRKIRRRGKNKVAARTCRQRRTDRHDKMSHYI

[8] = biological target: Glyceraldehyde-3-phosphate dehydrogenase (Homo sapiens, UniProt P04406)
[9] = A549 cell cytotoxicity, dose response, cytotoxicity control, plate reader, cherry-pick, antagonist series (AID 743412); format: functional, cell-based
[10] = toxicity toward HepG2 liver cells – cell-based, plate reader, cherry-pick, antagonist series, cytotoxicity control, dose response (AID 743416); format: functional
[11] = blockers of bursicon-stimulated LGR2 cAMP reporter – cell-based, HEK293, CRE-luciferase reporter, cherry pick, set 2, dose response (AID 743343); format: functional;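 also: transfected cells were stimulated with diluted bursicon conditioned medium after compound addition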
[12] = blockade of melanocortin 4 receptor signaling – cell-based, plate reader, cherry pick, counter-screen for LGR2 antagonist project, dose response (AID 743444); format: functional;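 also: transfected HEK 293 cells stimulated with alpha-MSH peptide; potency of inhibitors of the alpha-MSH evoked signal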
[13] = viability loss in HEK293 cells – cell-based, plate reader, cherry-picked samples, cytotoxicity control, dose response (AID 743446); format: functional
[14] = Luminescence Cell-Based Dose Response HTS to Identify Activators of Luciferase Translation or Activity in H4 […] Cells. [Related pubchem assays: 1829 (Project Summary), 1814 (Primary HTS)]; format: functional
H4 = assay: Luminescence Cell-Based Dose Response HTS to Identify Activators of 5'UTR Stem-Loop Driven Prion Protein mRNA Translation in H4 Neuroglioblastoma Cells. [Related pubchem assays: 1829 (Project Summary), 1814 (Primary HTS)]; format: functional; conditions: Homo sapiens
Large T antigen = Large T antigen (Simian virus 40, UniProt P03070); format: functional, Betapolyomavirus macacae;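 also: Confirmatory-stage PubChem screen for compounds that inhibit SV40 T antigen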
[15] = biological target: Induced myeloid leukemia cell differentiation protein Mcl-1 (Homo sapiens, UniProt Q07820); format: functional
[16] = NIH-3T3 fibroblast cytotoxicity, dose response, cytotoxicity control, cell-based, fluorescence, Alamar Blue, secondary assay (AID 2327); format: functional;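 also: NIH-3T3 mouse fibroblasts cultured with fluconazole at 8 µg/mL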
[17] = fluconazole-exposed Candida albicans growth modulators – fluorescence, retest, confirmation (AID 2467); format: functional, cell-based
[18] = P. falciparum Dd2 growth inhibitors, dose response, SYBR Green, cherry-picked samples (AID 1159567); format: functional, cell-based
[19] = biological target: Luciferin 4-monooxygenase (Photinus pyralis, UniProt P08659); assay: inhibition of purified Photinus pyralis luciferase – biochemical, luminescence, dose response (AID 1891)
[20] = Luminescence Cell-Based Dose Confirmation HTS to Identify Inhibitors of Platelet Dense Granule Release. [Related pubchem assays: 1663 (Primary HTS), 1678 (Summary of Project)]; format: functional

T1 sequence (P11940 whole entry, the tested form may be a part): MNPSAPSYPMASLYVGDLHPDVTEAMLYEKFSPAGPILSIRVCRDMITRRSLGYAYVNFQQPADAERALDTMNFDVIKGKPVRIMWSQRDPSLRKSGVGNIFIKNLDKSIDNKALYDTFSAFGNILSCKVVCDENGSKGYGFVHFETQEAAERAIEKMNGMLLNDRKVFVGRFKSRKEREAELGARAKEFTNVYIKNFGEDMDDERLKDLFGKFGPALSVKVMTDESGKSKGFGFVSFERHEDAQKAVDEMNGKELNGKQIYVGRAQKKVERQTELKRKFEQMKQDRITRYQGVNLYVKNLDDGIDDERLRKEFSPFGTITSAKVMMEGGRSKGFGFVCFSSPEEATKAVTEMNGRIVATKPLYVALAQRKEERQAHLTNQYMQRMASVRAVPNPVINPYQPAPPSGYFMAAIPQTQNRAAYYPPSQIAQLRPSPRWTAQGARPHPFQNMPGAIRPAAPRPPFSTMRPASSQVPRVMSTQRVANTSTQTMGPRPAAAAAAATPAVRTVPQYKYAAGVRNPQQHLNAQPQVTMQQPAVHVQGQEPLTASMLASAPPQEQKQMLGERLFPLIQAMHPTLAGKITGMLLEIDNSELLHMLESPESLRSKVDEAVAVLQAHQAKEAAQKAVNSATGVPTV
Glyceraldehyde-3-phosphate dehydrogenase, sequence (P04406 whole entry): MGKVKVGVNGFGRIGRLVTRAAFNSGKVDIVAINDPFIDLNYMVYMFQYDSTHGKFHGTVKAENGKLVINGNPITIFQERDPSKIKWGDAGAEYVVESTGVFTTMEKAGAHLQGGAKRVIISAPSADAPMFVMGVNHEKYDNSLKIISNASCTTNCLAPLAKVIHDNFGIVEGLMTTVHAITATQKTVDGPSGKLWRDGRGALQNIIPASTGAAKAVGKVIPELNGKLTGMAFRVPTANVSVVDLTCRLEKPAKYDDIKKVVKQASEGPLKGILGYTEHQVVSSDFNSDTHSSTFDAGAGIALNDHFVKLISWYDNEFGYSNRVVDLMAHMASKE
Induced myeloid leukemia cell differentiation protein Mcl-1, sequence (Q07820 whole entry): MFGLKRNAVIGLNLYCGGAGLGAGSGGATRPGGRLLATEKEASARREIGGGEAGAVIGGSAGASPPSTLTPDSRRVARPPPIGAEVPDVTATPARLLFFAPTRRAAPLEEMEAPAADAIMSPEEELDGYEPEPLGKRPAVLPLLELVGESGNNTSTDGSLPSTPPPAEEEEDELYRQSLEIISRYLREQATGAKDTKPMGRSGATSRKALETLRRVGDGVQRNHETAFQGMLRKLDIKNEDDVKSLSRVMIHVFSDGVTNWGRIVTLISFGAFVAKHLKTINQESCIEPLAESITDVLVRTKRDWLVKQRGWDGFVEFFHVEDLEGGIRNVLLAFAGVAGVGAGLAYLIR
Luciferin 4-monooxygenase, sequence (P08659 whole entry): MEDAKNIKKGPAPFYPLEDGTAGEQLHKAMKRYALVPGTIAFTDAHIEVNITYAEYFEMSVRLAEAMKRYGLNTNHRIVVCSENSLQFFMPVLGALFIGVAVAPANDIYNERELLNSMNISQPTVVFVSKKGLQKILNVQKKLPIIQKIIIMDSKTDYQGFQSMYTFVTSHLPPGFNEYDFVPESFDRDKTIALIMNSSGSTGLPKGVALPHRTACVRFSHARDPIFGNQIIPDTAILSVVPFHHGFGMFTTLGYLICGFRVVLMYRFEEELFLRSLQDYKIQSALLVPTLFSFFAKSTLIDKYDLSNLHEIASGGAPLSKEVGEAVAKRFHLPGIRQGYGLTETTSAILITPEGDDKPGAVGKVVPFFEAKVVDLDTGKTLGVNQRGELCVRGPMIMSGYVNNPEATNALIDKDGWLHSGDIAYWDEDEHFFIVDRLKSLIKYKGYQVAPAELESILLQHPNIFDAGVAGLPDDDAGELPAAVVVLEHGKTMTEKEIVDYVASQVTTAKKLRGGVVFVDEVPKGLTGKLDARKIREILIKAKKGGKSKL
Large T antigen, sequence (P03070 whole entry): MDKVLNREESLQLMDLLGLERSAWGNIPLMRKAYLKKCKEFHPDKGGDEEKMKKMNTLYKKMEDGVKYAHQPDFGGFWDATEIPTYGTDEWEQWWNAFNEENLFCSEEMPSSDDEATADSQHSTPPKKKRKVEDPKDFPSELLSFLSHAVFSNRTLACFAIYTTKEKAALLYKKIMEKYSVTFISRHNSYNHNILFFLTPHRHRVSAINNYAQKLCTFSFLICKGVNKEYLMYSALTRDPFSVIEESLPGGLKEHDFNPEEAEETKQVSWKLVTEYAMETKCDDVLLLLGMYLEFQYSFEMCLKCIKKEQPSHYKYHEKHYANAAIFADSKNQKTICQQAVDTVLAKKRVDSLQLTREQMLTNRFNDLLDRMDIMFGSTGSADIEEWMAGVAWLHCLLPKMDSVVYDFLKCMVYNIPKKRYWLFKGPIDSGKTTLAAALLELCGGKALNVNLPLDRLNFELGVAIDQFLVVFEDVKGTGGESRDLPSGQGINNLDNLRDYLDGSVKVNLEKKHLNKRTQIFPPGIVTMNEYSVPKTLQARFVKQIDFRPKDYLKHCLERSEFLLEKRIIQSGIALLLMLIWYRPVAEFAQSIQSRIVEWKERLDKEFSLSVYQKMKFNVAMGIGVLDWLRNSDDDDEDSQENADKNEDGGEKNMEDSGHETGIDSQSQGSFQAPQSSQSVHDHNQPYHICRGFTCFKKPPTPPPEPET

SMILES: Cc1onc(-c2ccccc2)c1NC(=O)N(Cc1ccccc1)C(C)C
- EC50 (cells [1]): > 350 µM (not active)
- EC50 (cells [2]): > 350 µM (not active)

SMILES: O=C(C[C@@H]1C=C[C@H](NC(=O)c2ccccc2)[C@H](CO)O1)NCc1ccc(Oc2ccccc2)cc1
- AC50 [3]: 24.7 µM (active)
- AC50 [4]: 24.1 µM (active)
- AC50 [5]: 35 µM (active)

SMILES: COc1ccc(CNC(=O)N(C)C[C@H]2OCc3ccccc3-c3c(n(C)c4ccccc34)C(=O)N([C@@H](C)CO)C[C@@H]2C)cc1
- AC50 [3]: < 0.26 µM (active)
- AC50 [4]: < 0.26 µM (active)
- AC50 [5]: < 0.26 µM (active)

SMILES: COc1cc(/C=C/C(=O)Nc2cc(S(=O)(=O)N3CCOCC3)ccc2N2CCCC2)cc(OC)c1OC
- IC50 [6]: > 66 µM (inactive)
- IC50 [7]: > 66 µM (inactive)

SMILES: Cc1nc2ccccc2nc1OCc1ccccc1
- IC50 (Protein skinhead-1): 18.2 µM (active)

SMILES: CCOC(=O)c1cnc2ccc(Cl)cc2c1NCCN(C)C
- IC50 [6]: > 66 µM (inactive)
- IC50 [7]: > 66 µM (inactive)

SMILES: COc1cccc(N2CCN(C3=C(Cl)C(=O)N(c4ccc(C(F)(F)F)cc4)C3=O)CC2)c1
- IC50 [8]: > 50 µM (inconclusive)

SMILES: C=CCN1C(=O)c2ccccc2Sc2ccc(C(=O)N3CCN(C)CC3)cc21
- EC50 (cells [1]): > 350 µM (not active)
- EC50 (cells [2]): > 350 µM (not active)

SMILES: Clc1ccc(-n2nnc(-c3nccs3)n2)cc1Cl
- IC50 (Protein skinhead-1): > 100 µM (inactive)

SMILES: Cn1ncc(Br)c1NC(=O)CSc1ccc(Cl)cc1
- EC50 (cells [1]): > 350 µM (not active)
- EC50 (cells [2]): 181 µM (active)

SMILES: COc1cccc(-c2ncn(CCc3ccccc3OC)c2CC(C)C)c1
- AC50 [9]: 23.6 µM (active)
- AC50 [10]: 22.3 µM (active)
- AC50 [11]: 23.6 µM (active)
- AC50 [12]: 22.2 µM (active)
- AC50 [13]: > 52 µM (inactive)

SMILES: Cc1ccc2c(c1)NC(=O)c1cccnc1N2
- EC50 [14]: 61.7 µM (active)
- EC50 (H4): > 120 µM (not active)
- IC50 (Large T antigen): 10.2 µM (active)
- IC50 [15]: 10.5 µM (not active)

SMILES: CN(Cc1ccccc1)S(=O)(=O)c1ccc(C(=O)O)o1
- IC50 [8]: > 100 µM (not active)

SMILES: CCCSc1cc(N)cc([N+](=O)[O-])c1
- EC50 [16]: > 160 µM (inconclusive)
- EC50 [17]: > 38 µM (not active)

SMILES: Clc1cccc(/C=N/Nc2nc(Cl)nc3ccccc23)c1
- IC50 [15]: 19 µM (not active)

SMILES: CSc1nc(C)cc(C)c1C#N
- EC50 (cells [1]): > 350 µM (not active)
- EC50 (cells [2]): > 350 µM (not active)

SMILES: CN(C)CC(=O)N1[C@H](CO)[C@H](c2ccc(-c3cccc(C(=O)N(C)C)c3)cc2)[C@@H]1C#N
- AC50 [18]: 7.56 µM (active)

SMILES: O=C(/C=C/Nc1ccc(F)cc1F)c1cccs1
- EC50 [19]: 1.09 µM (active)
- EC50 [20]: 4.23 µM (active)
- IC50 (Protein skinhead-1): 73.4 µM (inactive)

SMILES: CCOC(=O)Cc1csc(NC(=O)c2ccc3ncsc3c2)n1
- EC50 [16]: > 160 µM (inactive)
- EC50 [17]: > 38 µM (not active)
